From paper PMC10643566, “Insights into the mechanism of SARS-CoV-2 main protease autocatalytic maturation from model precursors” (Communications Biology, 2023)
Several values for one entry are separate records, joined by “and”; a condition that tells them apart may be missing. Identical values can stand only once.

How the values were obtained:
[1] = biological target: MPro^1–199 (catalytic domain); settings: read-out: GC373 binding (Kd), determined by ITC, ref [11],[13]; cited from earlier work
[2] = biological target: MPro^M (E290A and R298A mutations); settings: read-out: GC373 binding (Kd), determined by ITC, ref [11],[13]; cited from earlier work
MPro^WT = settings: read-out: GC373 binding (Kd), determined by ITC, ref [11],[13]; cited from earlier work
nsp4/nsp5 cleavage site = format: biochemical, SARS-CoV-2

Molecule | Kd [1] [µM] | Kd [2] [µM] | Kd (MPro^WT) [µM] | % Conversion at 15 h (nsp4/nsp5 cleavage site) | % Conversion at 24 h (nsp4/nsp5 cleavage site) | Δ[P] at 24 h (nsp4/nsp5 cleavage site)
CC(C)C[C@H](NC(=O)OCc1ccccc1)C(=O)N[C@H](C=O)C[C@@H]1CCNC1=O [GC373] | 32 ± 5 | 6.13 ± 0.3 | 0.15 | – | – | –
^(−25)MPro^1–199: precursor with 25 nsp4 residues appended to the N-terminus of catalytic domain MPro^1–199 | – | – | – | 32.2% and 32.4% | 42.2% and 43.2% | 40.5 ± 0.4 µM and 20.7 ± 0.2 µM
